# Assays:
# [1] = system: PPC-1 prostate cancer cells; experiment: Alamar Blue proliferation assay, PPC-1; format: cell-based, human; settings: PPC-1 cells, 30 nM, normalized to negative control miRNA (100% proliferation)
# Description: (§1) The inventors assessed the therapeutic effect of hsa-miR-126 for prostate cancer by using 4 individual human prostate cancer cell lines. To measure cellular proliferation of prostate cancer cells, the following prostate cancer cell lines were used: PPC-1, derived from a bone metastasis; Du145, derived from a brain metastasis; RWPE2, derived from prostate cells immortalized by human papillomavirus 18 and transformed by the K-RAS oncogene; and LNCaP, derived from a lymph node metastasis (Stone et al., 1978; Horoszewicz et al., 1980; Brothman et al., 1991; Pretlow et al., 1993; Bello et al., 1997). PPC-1 and Du145 cells lack expression of the prostate-specific antigen (PSA) and are independent of androgen receptor (AR) signaling. In contrast, RWPE2 and LNCaP cells test positive for PSA and AR. Cells were transfected with synthetic hsa-miR-126 (Pre-miR™-hsa-miR-126, Ambion cat. no. AM 17100) or negative control miRNA (NC; Pre-miR™ microRNA Precursor Molecule-Negative Control #2; Ambion cat. no. AM17111) in a 96-well format using a lipid-based transfection reagent. […] Proliferation was assessed 4-7 days post-transfection using Alamar Blue™ (Invitrogen) following the manufacturer's instructions. […] Fluorescent light units (FLU) were measured after 3 hours, normalized to the control, and plotted as percent change in proliferation. […]
# [2] = system: Du145 prostate cancer cells; experiment: Alamar Blue proliferation assay, Du145; format: cell-based, human; settings: 30 nM, normalized to negative control miRNA (100% proliferation)
# Description: as §1
substance,measurement,setting,value
"hsa-miR-126 (UCGUACCGUGAGUAAUAAUGC; synthetic pre-miR form, further chemistry not given here) [Synthetic hsa-miR-126 (Pre-miR™-hsa-miR-126, Ambion cat. no. AM17100)]",% proliferation,[1],71.89%
same,% proliferation,[2],63.41%
